Test results reported in patent US8688427B2, “Enzyme catalysts for diels-alder reactions” (University of Washington, priority 2008, dated 2014).

Key:
[1] = system: Diels-Alderase DA_20_10, variant of DA_20_00 (Loligo vulgaris diisopropylfluorophosphatase scaffold, SEQ ID NO:2) with A21T/A74I/S271A/A173C/Q149R/A272N, SEQ …; experiment: Kinetics of Diels-Alder reaction catalysed by optimized DA_20_10; assay type: biochemical; settings: 298K
Procedure: (A) Dependence of reaction velocity on diene concentration for different fixed dienophile concentrations. The diene concentration was varied from 3.0 to 0.18 mM with a fixed concentration of 100 mM (⋄), 66 mM (Δ), 44 mM (⋄), 30 mM (◯), 20 mM (◯), or 13 mM (●) dienophile (B) Dependence of reaction velocity on dienophile concentration for different fixed diene concentrations. The dienophile was varied from 100 to 13.0 mM with a fixed concentration of 3 mM (♦), 2 mM (▴), 1.3 mM (∇), 0.9 mM (Δ), 0.6 mM (⋄), 0.4 mM (□), 0.26 mM (◯), or 0.18 mM (●) […]. Reactions were carried out with 20 μM protein in PBS at 298 K.
(§1) The Diels-Alder reactions were performed in PBS, at 25° C., with 4% DMSO. The DMSO came from the diene, for which the stock solution (100 mM) was made in DMSO and always diluted such that the final reaction would contain 4% DMSO. After incubation of the desired amount of diene and dienophile in the presence or absence of the protein, time points were taken of the reaction (5 μL) and quenched in a solution of 80:20 acetonitrile:water with 0.1% formic acid and 1 mM Benzoic Acid (95 μL). This reaction was incubated for 5 minutes and then the precipitated protein filtered using a Millipore multiscreen solvinert filter plate (Product Number: MSRLN0450). 20 μL of the filtered quench solution was then injected and analyzed using a liquid chromatography-tandem mass spectroscopy (LC-MSMS) assay.
To summarize the optimization rounds, residues contacting the transition state in DA—20—00 were mutated individually to sets of residues predicted to retain or improve transition state binding and bolster the two catalytic residues. […] Three of the mutations (FIG. 6C) likely improve the packing around the transition state (A741, A21 T) or catalytic glutamine (A173C). Two of the mutations likely improve the overall electrostatic complementarity with the bound substrates and transition state: Q149R hydrogen bonds to the carboxylate on the diene and S271A makes the dienophile environment more non polar.
The kinetics of the DA—20—10 catalyzed reaction was characterized by measuring the dependence of the reaction velocity on the concentration of both diene and dienophile. The effective molarity (kcat/kuncat) of DA—20—10 is 100 M, and the rate enhancement (kcat/(kuncat*KM_diene)) in the presence of saturating dienophile and limiting diene is 1.0×10^5. At high substrate concentrations DA—20—10 proceeds for more than 30 turnovers before the enzyme loses activity. At higher enzyme concentrations more than 80% of the diene substrate is converted to product.
(§2) The errors represent the calculated 95% confidence interval. The parameter a describes the cooperativity of binding between the two substrates: a value greater than one indicates negative cooperativity, whereas a value lower then one indicates positive cooperativity. α could not be determined for DA—20—00. Kinetic parameters for catalytic antibodies 7D4 and 4D5 were taken from (10, 17).

[2] = system: catalytic antibody mAb 7D4; settings: 310K, cited from earlier work
[3] = system: Diels-Alderase DA_20_00, computational design on Loligo vulgaris diisopropylfluorophosphatase scaffold (PDB-ID 1E1A, SEQ ID NO:2), SEQ ID NO:4; experiment: Kinetics of Diels-Alder reaction catalysed by original design DA_20_00; assay type: biochemical; settings: 298K, PBS, error = 95% confidence interval
Procedure: as §1
This active design (DA—20—00) was created from a 6-bladed beta barrel propeller scaffold (PDB-ID 1E1A; a diisopropylfluorophosphatase from Loligo vulgaris). […]
as §2, with “Kinetic parameters for catalytic antibodies 7D4 and 4D5 were taken from (10, 17).” left out

[4] = system: catalytic antibody mAb 4D5; settings: 310K, cited from earlier work

For `C=C/C=C/NC(=O)OCc1ccc(C(=O)O)cc1` [diene, 4-carboxybenzyl trans-1,3-butadiene-1-carbamate], the kcat ([1]; PBS, 20 μM protein, diene + dienophile reaction, error = 95% confidence interval) was 0.000678 ± 8.3e-05 s⁻¹, the Km ([1]; PBS, 20 μM protein, error = 95% confidence interval, read-out: KM-diene) was 980 ± 200 µM and the “a (cooperativity of binding between the two substrates)” value ([1]; diene and dienophile, >1 indicates negative cooperativity) was 1.7 ± 0.7. For the same compound, the “effective molarity (kcat/kuncat)” value ([1]; diene + dienophile reaction) was 100 M, the kcat ([2]; diene + dienophile reaction) was 5.83e-05 s⁻¹ and the “a (cooperativity of binding between the two substrates)” value ([2]; diene and dienophile) was 1. For the same compound, the Km ([2]; read-out: KM-diene) was 960 µM, the kcat ([3]; diene + dienophile reaction) was 2.8e-06 ± 5.6e-07 s⁻¹ and the Km ([3]; read-out: KM-diene) was 3530 ± 1500 µM. The kcat ([4]; diene + dienophile reaction) was 5.83e-05 s⁻¹, the “a (cooperativity of binding between the two substrates)” value ([4]; diene and dienophile) was 1 and the Km ([4]; read-out: KM-diene) was 1600 µM.
